Results reported in publication PMC8151276, “An Integrated Approach toward NanoBRET Tracers for Analysis of GPCR Ligand Engagement” (Molecules, 2021).

Molecular target: T1, GPR50 (Homo sapiens, UniProt Q13585)
T1 construct: purchased Promega (in-house HiBiT-GPCR construct library, NanoBRET)
Assay: NanoBRET screen HiBiT-GPR50 in HEK293
Assay type: binding
Procedure: Each tracer candidate was screened across the entire library of HiBiT-GPCR constructs using NanoBRET as the detection modality. As depicted in Figure 4A, the specificity of interactions was evaluated through decrease in BRET due to competitive displacement of a bound tracer by excess parental compound. Each tracer was analyzed for binding to each HiBiT-GPCR fusion in the absence and in the presence of competing parental compound. Briefly, HEK293 cells were transfected with HiBiT-GPCR constructs diluted into promoterless DNA to reduce expression and maximize translocation to the cell surface. Each tracer candidate was then screened at concentrations of 1 μM and 0.1 μM across cells expressing these fusions. Cells were treated for 1.5 h with tracer either alone or in the presence of 20 μM competing parental compound (i.e., control). BRET was measured upon addition of purified LgBiT and subsequent complementation with HiBiT genetically fused to a GPCR. The specificity of interactions was assessed through a decrease in BRET signal due to competitive displacement of the bound tracer. To further gauge the robustness of these interactions, the fold response over the control (i.e., BRETtracer/BRETcontrol) was calculated. We chose a 1.5-fold response, which translates to ≥7-fold signal over noise as the minimal threshold required to score an interaction as positive.
HiBiT-GPCR DNA constructs were diluted in 10 mM Tris pH 8 to a final concentration of 0.01 μg/μL, arrayed in 96-well plates and stored at −20 °C. For transfection, HEK293 cells were suspended in Opti-MEM (without phenol red) supplemented with 2% fetal bovine serum (Seradigm) and 100 units/mL penicillin–streptomycin (Gibco) at a final concentration of 220,000 cells/mL and dispensed into white 96-well plates at 90 μL/well. Subsequent transfections and screens were carried using an Agilent Bravo Automated Liquid Handling Platform. First, the 96-well HiBiT DNA arrays were diluted 25-fold in Opti-MEM (without serum or phenol red) to a final concentration of 0.0004 μg/μL and 20 μL of the diluted DNAs were transferred into new 96-well plates. Next, promoterless carrier DNA (1 μg/μL) was diluted 25-fold (0.04 μg/μL) and then dispensed into the diluted arrays at 20 μL/well. Following brief mixing, Viafect transfection reagent (Promega) diluted 16-fold into Opti-MEM was dispensed into the plates at 40 μL/well. After mixing by pipetting, plates were incubated for 10 min on the pipetting station deck. The DNA-transfection reagent complexes were then added to plates containing cells. To facilitate the screen, 10 μL of DNA-transfection reagent complexes were added in duplicates to the top 4 and bottom 4 rows, resulting in two identical 48-well arrays per plate. Plates with transfected cells were incubated for 18–20 h at 37 °C/5% CO2. A screen of each tracer across the entire library using two different concentrations requires duplicate plates of transfected cells. Depending on the number of tracers being screened, transfections can be scaled up using the same ratios. The next day, for each tracer, four 20× screening solutions in tracer dilution buffer (Promega) were prepared: two duplicates at final concentration of 20 μM and two duplicates at a final concentration of 2 μM. […] The four resulting solutions were diluted 4-fold in Opti-MEM without serum or phenol red to generate 5× solutions (5 µM and 0.5 µM tracer +/− 100 μM competing compound). To screen the library, a BioTek MultiFlo FX liquid dispenser was used to dispense 22.5 µL of tracer solution to the top 4 rows and 22.5 µL tracer + competing compound solution to the 4 bottom rows. Plates were briefly mixed on an orbital shaker and incubated for 1.5 h at room temperature. […] Plates were briefly mixed on an orbital shaker and incubated for 15 min to allow complementation.

T1 sequence (Q13585 whole entry): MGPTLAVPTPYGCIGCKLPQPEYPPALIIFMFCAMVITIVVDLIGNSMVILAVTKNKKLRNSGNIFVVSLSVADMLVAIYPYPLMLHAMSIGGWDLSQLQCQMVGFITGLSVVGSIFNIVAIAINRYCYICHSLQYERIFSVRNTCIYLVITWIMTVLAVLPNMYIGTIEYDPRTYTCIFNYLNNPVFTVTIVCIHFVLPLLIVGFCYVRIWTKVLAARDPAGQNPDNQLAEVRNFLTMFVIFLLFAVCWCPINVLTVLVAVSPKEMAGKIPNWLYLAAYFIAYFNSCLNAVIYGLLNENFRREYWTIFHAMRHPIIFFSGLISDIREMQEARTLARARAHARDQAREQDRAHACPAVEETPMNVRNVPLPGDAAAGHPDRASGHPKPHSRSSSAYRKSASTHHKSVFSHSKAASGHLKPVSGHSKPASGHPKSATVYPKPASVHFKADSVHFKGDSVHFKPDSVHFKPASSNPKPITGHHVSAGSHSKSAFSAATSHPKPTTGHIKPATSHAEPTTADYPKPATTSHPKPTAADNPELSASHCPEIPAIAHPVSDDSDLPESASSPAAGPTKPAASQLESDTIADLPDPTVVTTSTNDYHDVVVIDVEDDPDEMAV

SMILES | NanoBRET Fold Response (GPR50, tracer 0.1μM) | NanoBRET Fold Response (GPR50, tracer 1μM) | also measured
CCOC(=O)c1cc(C#N)c(N2CCC(C(=O)NS(=O)(=O)Cc3ccccc3/C=C/C(=O)NCCNC(=O)CCc3ccc4n3[B-](F)(F)[N+]3=C(c5ccc[nH]5)C=CC3=C4)CC2)nc1C [AZD1283-1-NB590] |  |  | NanoBRET Fold Response (GPR50, 0.1μM): 0.97; NanoBRET Fold Response (GPR50, 1μM): 0.97
N#CN=C(NCCCOc1cccc(CN2CCCCC2)c1)NCCNC(=O)CCOCCOCCOCCOCCNC(=O)CCc1ccc2n1[B-](F)(F)[N+]1=C(c3ccc[nH]3)C=CC1=C2 [Aminopotentidine-2-NB590] | 1.02 | 0.97 | 
CN(C)CCC=C1c2ccccc2CCc2ccc(C(=O)NCCNC(=O)CCOCCOCCOCCOCCNC(=O)CCc3ccc4n3[B-](F)(F)[N+]3=C(c5ccc[nH]5)C=CC3=C4)cc21 [Amitriptyline-b-2-NB590] | 0.99 | 0.99 | 
COc1ccc2c(n1)c(CCNC(C)=O)cn2CCNC(=O)CCc1ccc2n1[B-](F)(F)[N+]1=C(c3ccc[nH]3)C=CC1=C2 [Azamelatonin-1-NB590] |  |  | NanoBRET Fold Response (0.1μM tracer): 0.95; NanoBRET Fold Response (1μM tracer): 0.91
COc1ccc2[nH]c(-c3ccc(CNC(=O)CCOCCOCCOCCOCCNC(=O)CCc4ccc5n4[B-](F)(F)[N+]4=C(c6ccc[nH]6)C=CC4=C5)cc3)c(CCNC(C)=O)c2n1 [AzomelatoninICO9-2-NB590] |  |  | NanoBRET Fold Response (0.1μM tracer): 0.96; NanoBRET Fold Response (1μM tracer): 1.01
O=C(CCOCCOCCOCCOCCNC(=O)CCc1ccc2n1[B-](F)(F)[N+]1=C(c3ccc[nH]3)C=CC1=C2)NCCCN1CCN(C2=Nc3cc(Cl)ccc3Nc3ccccc32)CC1 [Clozapine-a-2-NB590] |  |  | NanoBRET Fold Response (GPR50, 0.1μM tracer): 1.04; NanoBRET Fold Response (GPR50, 1μM tracer): 1.00
CN1CCN(C2=Nc3cc(Cl)ccc3Nc3ccc(CNC(=O)CCOCCOCCOCCOCCNC(=O)CCc4ccc5n4[B-](F)(F)[N+]4=C(c6ccc[nH]6)C=CC4=C5)cc32)CC1 [Clozapine-b-2-NB590] |  |  | NanoBRET Fold Response (GPR50, 0.1μM tracer): 0.98; NanoBRET Fold Response (GPR50, 1μM tracer): 0.97
O=C(CCOCCOCCOCCOCCNC(=O)CCc1ccc2n1[B-](F)(F)[N+]1=C(c3ccc[nH]3)C=CC1=C2)NCCCN1CCN(C2=Nc3ccccc3Oc3ccc(Cl)cc32)CC1 [Loxapine-a-2-NB590] | 0.74 | 1.09 | 
COc1ccccc1N1CCN(CCCCN2C(=O)c3ccc(CNC(=O)CCOCCOCCOCCOCCNC(=O)CCc4ccc5n4[B-](F)(F)[N+]4=C(c6ccc[nH]6)C=CC4=C5)cc3C2=O)CC1 [NAN-190-2-NB590] | 1.00 |  | 
COc1ccccc1N1CCN(CCCCN2C(=O)c3ccc(CNC(=O)CCOCCNC(=O)c4ccc(CNC(=O)CCc5ccc6n5[B-](F)(F)[N+]5=C(c7ccc[nH]7)C=CC5=C6)cc4)cc3C2=O)CC1 [NAN-190-3-NB590] | 0.97 | 0.89 | 
O=C(CCc1ccc2n1[B-](F)(F)[N+]1=C(c3ccc[nH]3)C=CC1=C2)NCc1ccc(C(=O)NCCOCCC(=O)N[C@@H]2CC[C@@]3(O)[C@H]4Cc5ccc(O)c6c5[C@@]3(CCN4CC3CC3)[C@H]2O6)cc1 [Naltrexone-3-NB590] | 0.94 | 0.97 | 
Cc1cc2c(s1)Nc1ccccc1N=C2N1CCN(CCCNC(=O)CCOCCOCCOCCOCCNC(=O)CCc2ccc3n2[B-](F)(F)[N+]2=C(c4ccc[nH]4)C=CC2=C3)CC1 [Olanzapine-a-2-NB590] | 1.01 | 1.03 | 
O=C(CCc1ccc2n1[B-](F)(F)[N+]1=C(c3ccc[nH]3)C=CC1=C2)NCc1ccc(C(=O)NCCOCCOCCNCC(O)COc2cccc3ccccc23)cc1 (centres unmarked) [Propranolol-3-NB590] |  |  | NanoBRET Fold Response (GPR50, 0.1μM): 1.01; NanoBRET Fold Response (GPR50, 1μM): 1.05
O=C(CCc1ccc2n1[B-](F)(F)[N+]1=C(c3ccc[nH]3)C=CC1=C2)NCCOCCOCCNC(=O)OCCOCCN1CCN(C2=Nc3ccccc3Sc3ccccc32)CC1 [Quetiapine-a-2-NB590] | 1.11 | 0.96 | 
Cc1nc2n(c(=O)c1CCN1CCC(c3noc4cc(F)ccc34)CC1)CCCC2OC(=O)NCCOCCOCCOCCOCCNC(=O)CCc1ccc2n1[B-](F)(F)[N+]1=C(c3ccc[nH]3)C=CC1=C2 (centres unmarked) [Risperidone-2-NB590] | 0.99 | 1.01 | 
CC(C)N(CC[C@H](c1ccccc1)c1cc(CCNC(=O)CCOCCOCCOCCOCCNC(=O)CCc2ccc3n2[B-](F)(F)[N+]2=C(c4ccc[nH]4)C=CC2=C3)ccc1O)C(C)C [Tolterodine-2-NB590] | 1.12 | 0.93 | 
CC(C)N(CC[C@H](c1ccccc1)c1cc(CCNC(=O)c2ccc(CNC(=O)CCc3ccc4n3[B-](F)(F)[N+]3=C(c5ccc[nH]5)C=CC3=C4)cc2)ccc1O)C(C)C [Tolterodine-BZ-NB590] | 0.94 | 0.39 | 
CCCn1c(=O)c2[nH]c(-c3ccc(OCC(=O)NCCNC(=O)CCOCCNC(=O)c4ccc(CNC(=O)CCc5ccc6n5[B-](F)(F)[N+]5=C(c7ccc[nH]7)C=CC5=C6)cc4)cc3)nc2n(CCC)c1=O [XAC-3-NB590] | 1.05 | 1.04 | 
